Source: ChEMBL document CHEMBL1131308, “Synthesis and biological activity of 4-amino-7-oxo-substituted analogues of 5-deaza-5,6,7,8-tetrahydrofolic acid and 5,10-dideaza-5, 6,7,8-tetrahydrofolic acid” (J Med Chem, 1998)
Converted amounts (≈) assume the structure as drawn.

System: CCRF-CEM
Assay: In vitro inhibitory activity against CCRF-CEM human leukemia cells using cytotoxicity assay.
Type: functional, cell-based

With `CN(CC1Cc2c(N)nc(N)nc2NC1=O)c1ccc(C(=O)NC(CCC(=O)O)C(=O)O)cc1` (centres undefined) the IC50 was > 20 µg/mL.

With `COC(=O)c1ccc(N(C)CC2Cc3c(N)nc(N)nc3NC2=O)cc1` (centres undefined) the IC50 was > 20 µg/mL.

`Nc1nc(N)c2c(n1)NC(=O)C(CNc1ccc(C(=O)NC(CCC(=O)O)C(=O)O)cc1)C2` (centres undefined) was tested, and the IC50 was > 20 µg/mL.

`Nc1nc(N)c2c(n1)NC(=O)C(CCc1ccc(C(=O)O)cc1)C2` (centres undefined) was tested, and the IC50 was 6.7 µg/mL (≈ 20.5 µM).

`Nc1nc(N)c2c(n1)NC(=O)C(CCc1ccc(C(=O)NC(CCC(=O)O)C(=O)O)cc1)C2` (centres undefined) gave an IC50 of 39.2 µg/mL (≈ 85.9 µM).

For `COC(=O)c1ccc(CCC2Cc3c(N)nc(N)nc3NC2=O)cc1` (centres undefined), the IC50 was > 20 µg/mL.

For `CN(CC1Cc2c(N)nc(N)nc2NC1=O)c1ccc(C(=O)O)cc1` (centres undefined), the IC50 was > 20 µg/mL.

For `COC(=O)c1ccc(NCC2Cc3c(N)nc(N)nc3NC2=O)cc1` (centres undefined), the IC50 was > 20 µg/mL.

In the case of `Nc1nc(N)c2c(n1)NC(=O)C(CNc1ccc(C(=O)O)cc1)C2` (centres undefined), the IC50 is reported as > 20 µg/mL.
